Test results published in US7759331B2, “Pyridine-containing macroheterococylic compounds as kinase inhibitors” (Janssen Pharmaceutica NV, priority 2006, dated 2010).

Assays:
Test in all cases: Protein kinase selectivity panel
Format in all cases: biochemical
Conditions in all cases: 1.0 μM compound, 10 μM ATP
PKCθ(h) = PKCθ(h) (Homo sapiens, UniProt Q04759)
Summary of the method: (§1)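 Read-out is phosphorylation of the kinase's appropriate peptide/protein substrate, with and without 1.0 μM test compound. Assays used 10 μM ATP.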

GSK3α(h) = GSK3α(h) (Homo sapiens, UniProt P49840)
Sequence of GSK3α(h) (P49840 whole entry): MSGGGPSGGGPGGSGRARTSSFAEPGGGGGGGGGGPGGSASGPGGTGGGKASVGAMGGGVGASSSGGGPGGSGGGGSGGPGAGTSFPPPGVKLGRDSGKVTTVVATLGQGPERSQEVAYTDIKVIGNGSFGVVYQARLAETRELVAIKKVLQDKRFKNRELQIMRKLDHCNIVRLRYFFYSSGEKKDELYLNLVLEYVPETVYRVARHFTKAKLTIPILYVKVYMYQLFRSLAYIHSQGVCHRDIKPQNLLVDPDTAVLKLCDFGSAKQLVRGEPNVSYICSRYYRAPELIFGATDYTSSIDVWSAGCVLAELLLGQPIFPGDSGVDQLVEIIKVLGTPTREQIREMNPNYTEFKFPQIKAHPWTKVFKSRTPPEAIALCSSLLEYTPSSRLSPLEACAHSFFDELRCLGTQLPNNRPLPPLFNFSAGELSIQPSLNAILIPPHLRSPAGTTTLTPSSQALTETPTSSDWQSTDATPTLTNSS
Summary of the method: as §1

Rsk2(h) = Rsk2(h) (Homo sapiens, UniProt P51812)
Sequence of Rsk2(h) (P51812 whole entry): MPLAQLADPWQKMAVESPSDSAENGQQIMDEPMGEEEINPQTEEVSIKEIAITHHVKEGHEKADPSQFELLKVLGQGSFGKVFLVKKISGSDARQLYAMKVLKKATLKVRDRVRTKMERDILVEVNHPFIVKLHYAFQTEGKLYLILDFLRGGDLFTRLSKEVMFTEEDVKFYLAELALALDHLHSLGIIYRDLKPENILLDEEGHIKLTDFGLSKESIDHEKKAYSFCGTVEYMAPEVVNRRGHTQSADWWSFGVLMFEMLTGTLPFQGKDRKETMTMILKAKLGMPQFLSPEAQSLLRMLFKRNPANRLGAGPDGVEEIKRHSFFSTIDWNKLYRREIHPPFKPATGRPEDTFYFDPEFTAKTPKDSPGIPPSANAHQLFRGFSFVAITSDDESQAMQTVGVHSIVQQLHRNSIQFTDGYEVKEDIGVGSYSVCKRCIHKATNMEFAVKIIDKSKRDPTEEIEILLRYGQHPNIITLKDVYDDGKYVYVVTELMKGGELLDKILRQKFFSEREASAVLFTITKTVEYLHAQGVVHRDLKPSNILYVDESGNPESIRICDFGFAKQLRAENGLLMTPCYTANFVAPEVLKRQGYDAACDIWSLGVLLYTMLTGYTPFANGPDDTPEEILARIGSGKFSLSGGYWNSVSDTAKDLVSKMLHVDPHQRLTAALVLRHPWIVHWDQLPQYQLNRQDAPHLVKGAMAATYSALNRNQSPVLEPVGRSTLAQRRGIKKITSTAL
Summary of the method: as §1

PKCε(h) = target: T1, PKCε(h) (Homo sapiens, UniProt Q02156)
T1 sequence (Q02156 1-737): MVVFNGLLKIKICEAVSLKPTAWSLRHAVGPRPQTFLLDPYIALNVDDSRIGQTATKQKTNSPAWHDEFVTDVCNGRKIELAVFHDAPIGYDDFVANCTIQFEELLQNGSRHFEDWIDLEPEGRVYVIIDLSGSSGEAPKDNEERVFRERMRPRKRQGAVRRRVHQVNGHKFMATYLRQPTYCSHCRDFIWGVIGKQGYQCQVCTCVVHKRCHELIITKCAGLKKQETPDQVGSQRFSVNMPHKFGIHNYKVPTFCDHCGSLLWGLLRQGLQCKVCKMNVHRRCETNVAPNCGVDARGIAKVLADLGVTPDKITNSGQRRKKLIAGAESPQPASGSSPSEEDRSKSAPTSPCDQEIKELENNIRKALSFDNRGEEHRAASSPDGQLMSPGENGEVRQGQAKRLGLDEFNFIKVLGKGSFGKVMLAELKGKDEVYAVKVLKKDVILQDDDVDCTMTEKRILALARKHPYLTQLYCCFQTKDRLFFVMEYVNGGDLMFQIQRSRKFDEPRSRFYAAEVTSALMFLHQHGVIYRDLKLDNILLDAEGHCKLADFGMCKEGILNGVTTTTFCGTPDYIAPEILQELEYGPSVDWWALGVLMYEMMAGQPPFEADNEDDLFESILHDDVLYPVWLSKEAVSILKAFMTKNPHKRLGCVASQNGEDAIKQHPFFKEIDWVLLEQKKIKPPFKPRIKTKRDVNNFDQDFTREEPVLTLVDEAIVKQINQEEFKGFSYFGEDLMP
Summary of the method: as §1

Flt3(h) = target: T2, Flt3(h) (Homo sapiens, UniProt P36888)
T2 sequence (P36888 27-993): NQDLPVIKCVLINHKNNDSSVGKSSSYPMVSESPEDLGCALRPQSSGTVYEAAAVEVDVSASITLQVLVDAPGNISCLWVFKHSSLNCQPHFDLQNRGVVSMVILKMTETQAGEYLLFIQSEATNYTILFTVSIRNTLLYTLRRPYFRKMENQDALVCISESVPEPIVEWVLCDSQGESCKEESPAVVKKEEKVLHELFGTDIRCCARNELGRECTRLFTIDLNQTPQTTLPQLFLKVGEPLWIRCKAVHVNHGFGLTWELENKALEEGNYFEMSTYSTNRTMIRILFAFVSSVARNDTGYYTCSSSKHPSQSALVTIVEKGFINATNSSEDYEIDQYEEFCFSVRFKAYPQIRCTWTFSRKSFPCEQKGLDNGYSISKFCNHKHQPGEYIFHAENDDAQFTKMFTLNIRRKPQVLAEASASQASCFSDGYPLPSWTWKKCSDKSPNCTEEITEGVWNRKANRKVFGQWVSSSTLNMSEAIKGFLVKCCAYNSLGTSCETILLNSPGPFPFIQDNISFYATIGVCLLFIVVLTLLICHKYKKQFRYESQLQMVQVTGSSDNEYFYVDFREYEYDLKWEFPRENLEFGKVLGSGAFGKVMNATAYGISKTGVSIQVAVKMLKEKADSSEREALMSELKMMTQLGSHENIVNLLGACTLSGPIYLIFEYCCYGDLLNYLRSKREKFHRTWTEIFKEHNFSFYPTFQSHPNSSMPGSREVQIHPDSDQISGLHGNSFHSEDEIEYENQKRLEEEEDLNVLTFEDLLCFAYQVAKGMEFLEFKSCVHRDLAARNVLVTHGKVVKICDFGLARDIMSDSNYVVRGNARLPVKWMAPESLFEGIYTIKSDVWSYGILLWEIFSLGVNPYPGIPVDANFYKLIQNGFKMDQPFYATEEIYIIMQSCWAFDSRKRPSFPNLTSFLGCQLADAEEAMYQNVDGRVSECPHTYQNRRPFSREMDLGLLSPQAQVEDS
Summary of the method: as §1

Sequence of PKCθ(h) (Q04759 whole entry): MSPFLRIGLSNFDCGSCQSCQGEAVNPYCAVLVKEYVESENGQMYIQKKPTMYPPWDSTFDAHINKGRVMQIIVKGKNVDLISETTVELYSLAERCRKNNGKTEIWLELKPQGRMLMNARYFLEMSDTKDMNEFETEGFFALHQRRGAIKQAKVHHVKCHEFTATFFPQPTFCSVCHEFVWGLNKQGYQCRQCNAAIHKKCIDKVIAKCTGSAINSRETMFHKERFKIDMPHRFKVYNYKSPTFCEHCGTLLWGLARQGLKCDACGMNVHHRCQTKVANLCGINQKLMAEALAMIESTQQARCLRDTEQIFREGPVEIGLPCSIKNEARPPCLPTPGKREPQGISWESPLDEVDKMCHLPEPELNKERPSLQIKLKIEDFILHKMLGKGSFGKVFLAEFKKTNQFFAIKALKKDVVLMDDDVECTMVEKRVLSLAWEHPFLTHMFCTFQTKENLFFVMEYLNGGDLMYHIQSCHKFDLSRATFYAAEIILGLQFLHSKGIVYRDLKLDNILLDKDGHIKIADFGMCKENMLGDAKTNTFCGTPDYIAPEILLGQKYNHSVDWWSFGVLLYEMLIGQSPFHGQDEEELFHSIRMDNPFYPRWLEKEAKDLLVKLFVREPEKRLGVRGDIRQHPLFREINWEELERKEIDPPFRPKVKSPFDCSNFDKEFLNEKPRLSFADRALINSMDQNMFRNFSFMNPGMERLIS

CN(C)c1nc2ccc1CCCCn1cc(c3ccccc31)C1=C(C(=O)NC1=O)c1cn(c3ccccc13)CCC2 [Cpd 1, 31-(dimethylamino)-5,15,25,32-tetraazaheptacyclo[28.2.2.1^5,12.1^18,25.0^6,11.0^13,17.0^19,24]hexatriaconta-1(32),6,8,10,12(36),13(17),18(35),19,21,23,30,33-dodecaene-14,16-dione]
Activity at Protein Kinase Assays (% of control), PKCθ(h) (PKCθ(h)): 21 % of control
Activity at Protein Kinase Assays (% of control), GSK3α(h) (GSK3α(h)): 4 % of control
Activity at Protein Kinase Assays (% of control), Rsk2(h) (Rsk2(h)): 32 % of control
Activity at Protein Kinase Assays (% of control), PKCε(h) (PKCε(h)): 72 % of control
Activity at Protein Kinase Assays (% of control), Flt3(h) (Flt3(h)): 86 % of control

CN(C)c1cc2cc(n1)CCCn1cc(c3ccccc31)C1=C(C(=O)NC1=O)c1cn(c3ccccc13)CCC2 [Cpd 2, 20-(dimethylamino)-4,14,19,26-tetraazaheptacyclo[24.6.1.1^7,14.1^18,22.0^2,6.0^8,13.0^27,32]pentatriaconta-1(33),2(6),7(35),8,10,12,18(34),19,21,27,29,31-dodecaene-3,5-dione]
Activity at Protein Kinase Assays (% of control), PKCθ(h) (PKCθ(h)): 27 % of control
Activity at Protein Kinase Assays (% of control), GSK3α(h) (GSK3α(h)): 3 % of control
Activity at Protein Kinase Assays (% of control), Rsk2(h) (Rsk2(h)): 10 % of control
Activity at Protein Kinase Assays (% of control), PKCε(h) (PKCε(h)): 83 % of control
Activity at Protein Kinase Assays (% of control), Flt3(h) (Flt3(h)): 71 % of control

O=C1NC(=O)C2=C1c1cn(c3ccccc13)CCCc1cc(nc(N3CCCC3)c1)CCCn1cc2c2ccccc21 [Cpd 6, 20-pyrrolidin-1-yl-4,14,19,26-tetraazaheptacyclo[24.6.1.1^7,14.1^18,22.0^2,6.0^8,13.0^27,32]pentatriaconta-1(33),2(6),7(35),8,10,12,18(34),19,21,27,29,31-dodecaene-3,5-dione]
Activity at Protein Kinase Assays (% of control), PKCθ(h) (PKCθ(h)): 29 % of control
Activity at Protein Kinase Assays (% of control), GSK3α(h) (GSK3α(h)): 4 % of control
Activity at Protein Kinase Assays (% of control), Rsk2(h) (Rsk2(h)): 12 % of control
Activity at Protein Kinase Assays (% of control), PKCε(h) (PKCε(h)): 93 % of control
Activity at Protein Kinase Assays (% of control), Flt3(h) (Flt3(h)): 77 % of control

O=C1NC(=O)C2=C1c1cn(c3ccccc13)CCCc1ccc(c(N3CCCC3)n1)CCCn1cc2c2ccccc21 [Cpd 7, 31-pyrrolidin-1-yl-5,15,25,30-tetraazaheptacyclo[27.2.2.1^5,12.1^18,25.0^6,11.0^13,17.0^19,24]pentatriaconta-1(31),6,8,10,12(35),13(17),18(34),19,21,23,29,32-dodecaene-14,16-dione]
Activity at Protein Kinase Assays (% of control), PKCθ(h) (PKCθ(h)): 33 % of control
Activity at Protein Kinase Assays (% of control), GSK3α(h) (GSK3α(h)): 9 % of control
Activity at Protein Kinase Assays (% of control), Rsk2(h) (Rsk2(h)): 63 % of control
Activity at Protein Kinase Assays (% of control), PKCε(h) (PKCε(h)): 97 % of control
Activity at Protein Kinase Assays (% of control), Flt3(h) (Flt3(h)): 85 % of control
